Assay results published in ChEMBL document CHEMBL1158938, “In vitro effects of tremorgenic mycotoxins” (J Nat Prod, 1991).
Activity calls are given as the source filed them. The rule behind the calls is not given here.

Key:
Ileum [1] = assay: Induction of guinea pig ileum contraction; format: functional, tissue-based; details: Cavia porcellus
[2] = Tremorgenic activity in ip dosed mouse; format: ADME, organism-based; details: in vivo
Ileum [3] = assay: Induction of electrically-stimulated guinea pig ileum contraction at 10 ng/ml relative to control in presence of acetylcholine; format: functional, Cavia porcellus
Ileum [4] = assay: Induction of electrically-stimulated guinea pig ileum contraction at 100 ng/ml relative to control in presence of acetylcholine; format: functional, Cavia porcellus
Ileum [5] = assay: Induction of electrically-stimulated guinea pig ileum contraction at 1 ug/ml relative to control in presence of acetylcholine; format: functional, Cavia porcellus
Ileum [6] = assay: Induction of electrically-stimulated guinea pig ileum twitch contraction at 10 ng/ml relative to control in presence of hyoscine; format: functional, Cavia porcellus
Ileum [7] = assay: Induction of electrically-stimulated guinea pig ileum twitch contraction at 100 ng/ml relative to control in presence of hyoscine; format: functional, Cavia porcellus
Ileum [8] = assay: Induction of electrically-stimulated guinea pig ileum twitch contraction at 1 ug/ml relative to control in presence of hyoscine; format: functional, Cavia porcellus
Ileum [9] = assay: Induction of electrically-stimulated guinea pig ileum twitch contraction at 10 ng/ml; format: functional, tissue-based; details: Cavia porcellus

With CC(C)(O)[C@H]1O[C@H]2CC[C@@]3(C)[C@@](O)(CC[C@H]4Cc5c([nH]c6ccccc56)[C@@]43C)C2=CC1=O [PAXILLINE] the Activity (Ileum [1]) was “Dose-dependent effect”, the ED50 [2] was 25 mg/kg and the Activity (Ileum [3]) was 121%. It also gave an Activity (Ileum [4]) of 118%, an Activity (Ileum [5]) of 126% and an Activity (Ileum [6]) of 9%. The Activity (Ileum [7]) was 11% and the Activity (Ileum [8]) was 2%.

For C=C1Cc2ccc3[nH]c4c5c3c2[C@H]2[C@@H]1C[C@@H]2C(C)(C)O[C@H]5[C@@H]1CC[C@@]2(O)[C@@]35O[C@@H]3[C@@H](O)[C@@H](C(=C)C)O[C@H]5CC[C@]2(C)[C@@]41C [PENITREM B], the ED50 [2] was 5 mg/kg, the Activity (Ileum [3]) was 111% and the Activity (Ileum [4]) was 96%. For the same compound, the Activity (Ileum [5]) was 117%, the Activity (Ileum [6]) was 12% and the Activity (Ileum [7]) was 10%. The Activity (Ileum [8]) was 10%.

For COc1ccc2c3c4n(c2c1)[C@H](C=C(C)C)OOC(C)(C)C[C@@H]4N1C(=O)[C@@H]2CCCN2C(=O)[C@]1(O)[C@H]3O [VERRUCULOGEN], the Activity (Ileum [1]) was “Dose-dependent effect”, the Activity (Ileum [9]) was “Active” and the ED50 [2] was 0.39 mg/kg. For the same compound, the Activity (Ileum [3]) was 127%, the Activity (Ileum [4]) was 123% and the Activity (Ileum [5]) was 109%. It also gave an Activity (Ileum [6]) of 7%, an Activity (Ileum [7]) of 11% and an Activity (Ileum [8]) of 14%.
